Where no end group is shown, it is not given here.
What was measured:
[1] = tested on: SD rats with bleomycin-induced pulmonary fibrosis; assay: Bleomycin-induced pulmonary fibrosis animal model; type: in vivo; settings: for Survival rate (%): dosage 10 mg/kg in Table 2, administration 14 days, model group 50
Procedure: SD rats were anesthetized by intraperitoneal injection of 1 mL/100 g 4% chloral hydrate. After anesthesia, the rats were fixed and their necks were disinfected by using cotton with 75% alcohol. The skin of the rat neck was longitudinally cut with scissors, and the fascia and muscle were longitudinally bluntly torn with tweezers to expose the trachea. A syringe was inserted into the trachea to inject 5 mg/kg bleomycin, while a blank group was injected with an equal amount of normal saline. Then a rat plate was quickly erected and rotated, the rats' breathing was observed, the neck wound was sterilized after rotation and was sewn, and an amoxicillin anti-inflammatory drug was sprinkled on the suture. After the operation, the rats were put back into a dry and clean cage for resting, waiting was performed for awakening. The rats were awakened after about 1-2 hours, and then fed normally. On the 7th day after modeling, modeling group animals randomly fell into a model group, a Nintedanib positive drug group, polypeptide I, II, III, IV, V, VI dosage groups, and a normal control group, and the groups were administered separately for an administration cycle of 14 days. Living situations of rats were observed every day and their weights were weighed. After administration for 14 days, the SD rats were dissected, the lung tissue was taken, and the right lung tissue was placed in a tissue fixative only for fixation, and HE staining and Masson staining and slice analysis were performed.

[2] = tested on: LX-2 hepatic stellate cells; assay: In vitro hepatic fibrosis model, MTT assay; type: cell-based; settings: 1 μmol/L; for Inhibition of proliferation (in words): 24 hours and 48 hours, Example 2; for Optical density value, 12 h / Optical density value, 24 h / Optical density value, 48 h: LX-2 cells, MTT, OD at 570 nm; for Optical density value, 12 h: blank group 0.456 ± 0.012; for Optical density value, 24 h: blank group 0.548 ± 0.01; for Optical density value, 48 h: blank group 0.812 ± 0.016
Procedure: (§1) The inhibitory effect of a polypeptide on LX-2 hepatic stellate cells was detected by MTT assay. Cells were cultured in a 1640 medium containing 10% of FBS, the […] was made into 4×10^5/mL cell suspension, and 100 μL per well was inoculated into a 96-well plate. After the cells adhered to the wall, the medium was replaced with a serum-free 1640 medium, and the serum-free medium was discarded after 24 hours. The cells were cultured with different polypeptides of 1 μmol/L, and 5 multiple wells were set for each concentration. After 12, 24 and 48 hours separately, 10 μL of MTT was added to each well. After 4 hours, MTT was sucked out, and 150 μL of DMSO was added to each well. After reaction for 5 min, an OD value was measured at 570 nm by a microplate reader.

[3] = tested on: cardiac fibroblasts of rats; assay: Myocardial fibrosis model, MTT assay; type: cell-based; settings: 1 μmol/L; for Inhibition of proliferation of cardiac fibroblasts of rats (in words): 24 hours and 48 hours; for Optical density value, 12 h / Optical density value, 24 h / Optical density value, 48 h: cardiac fibroblasts of rats, MTT, OD at 570 nm; for Optical density value, 12 h: blank group 0.353 ± 0.001; for Optical density value, 24 h: blank group 0.464 ± 0.018; for Optical density value, 48 h: blank group 0.896 ± 0.001
Procedure: as §1, with “cardiac fibroblasts of rats” for “LX-2 hepatic stellate cells”, “DMEM” for “1640”, “1×10^5/mL” for “4×10^5/mL”

HYP = assay: Bleomycin skin fibrosis model, HYP content in skin tissue; type: in vivo, C57/BL black mice; settings: bleomycin skin fibrosis mice; 10 mg/kg subcutaneous twice a day, 28 days; FIG. 4
Procedure: Bleomycin (10 μg/mL) was injected subcutaneously every day for 28 days to form skin fibrosis. During the modeling period, the administration groups were given polypeptide drugs twice a day for treatment. After modeling, the mice were killed on the next day, and the skin tissue of the mouse back was taken to detect the content of HYP in the skin tissue.

TGF-β1 = assay: Renal fibrosis animal model (ureter ligation), TGF-β1 in serum; type: in vivo; settings: SD rats with renal fibrosis; 7.5 mg/kg subcutaneous twice a day, 14 days; FIG. 3
Procedure: A renal fibrosis animal model was established. SD rats were anesthetized with 4% chloral hydrate, injected with 1 mL/100 g intraperitoneally, fixed to an operation board, and sterilized in an operation area for later use. […] Muscular layers and abdominal walls were sewed layer by layer, the suture was disinfected with alcohol. After SD rats woke up, the rats were put into a cage for feeding. In the blank group, ureter was not ligated, and other steps were the same.
Then, the animals fell into a blank group, a model group, and polypeptide administration groups, with 10 animals in each group, and the administration was started on the second day after the operation, twice a day for 14 days. After administration for 14 days, blood was taken and supernatant was taken to detect the content of TGF-β1 in serum.

| Compound | Survival rate (%) [1] [%] | Inhibition of proliferation (in words) [2] | Optical density value, 12 h [2] | Optical density value, 24 h [2] | Optical density value, 48 h [2] | Inhibition of proliferation of cardiac fibroblasts of rats (in words) [3] | Optical density value, 12 h [3] | Optical density value, 24 h [3] | Optical density value, 48 h [3] | Expression of HYP content in tissue versus model group (HYP) | Survival rate compared with model group / positive drug group ([1]; in words) | Content of TGF-β1 in serum versus model group (TGF-β1) |
| --- | --- | --- | --- | --- | --- | --- | --- | --- | --- | --- | --- | --- |
| COC(=O)c1ccc2c(c1)NC(=O)/C2=C(\Nc1ccc(N(C)C(=O)CN2CCN(C)CC2)cc1)c1ccccc1 [Positive drug group, Nintedanib, reference compound] | 90 | – | – | – | – | – | – | – | – | – | – | – |
| Ac-SDKPGGGGLSKLGGGGTSLDASIIWAMMQN (N-terminus assumed) [Polypeptide I, Ser-Asp-Lys-Pro-linker-Leu-Ser-Lys-Leu-linker-Thr-Ser-Leu-Asp-Ala-Ser-Ile-Ile-Trp-Ala-Met-Met-Gln-Asn] | 90 | could inhibit the proliferation | 0.452 ± 0.008 | 0.542 ± 0.03 | 0.680 ± 0.014 | could inhibit the proliferation | 0.362 ± 0.006 | 0.402 ± 0.002 | 0.678 ± 0.002 | highly significantly different from the model group (*P<0.05) | equivalent to that of the positive drug group | highly significantly different from the model group (***P<0.001) |
| Ac-SDKPGGGGTSLDASIIWAMMQNGGGGLSKL (N-terminus assumed) [Polypeptide II, Ser-Asp-Lys-Pro-linker-Thr-Ser-Leu-Asp-Ala-Ser-Ile-Ile-Trp-Ala-Met-Met-Gln-Asn-linker-Leu-Ser-Lys-Leu] | 80 | could inhibit the proliferation | 0.463 ± 0.012 | 0.394 ± 0.005 | 0.578 ± 0.005 | could inhibit the proliferation | 0.352 ± 0.004 | 0.367 ± 0.016 | 0.568 ± 0.013 | highly significantly different from the model group (***P<0.001) | – | highly significantly different from the model group (***P<0.001) |
| LSKLGGGGSDKPGGGGTSLDASIIWAMMQN [Polypeptide V, Leu-Ser-Lys-Leu-linker-Ser-Asp-Lys-Pro-linker-Thr-Ser-Leu-Asp-Ala-Ser-Ile-Ile-Trp-Ala-Met-Met-Gln-Asn] | 70 | could inhibit the proliferation | 0.462 ± 0.004 | 0.477 ± 0.015 | 0.618 ± 0.015 | could inhibit the proliferation | 0.357 ± 0.024 | 0.397 ± 0.015 | 0.588 ± 0.019 | highly significantly different from the model group (*P<0.05) | – | highly significantly different from the model group (**P<0.01) |
| LSKLGGGGTSLDASIIWAMMQNGGGGSDKP [Polypeptide VI, Leu-Ser-Lys-Leu-linker-Thr-Ser-Leu-Asp-Ala-Ser-Ile-Ile-Trp-Ala-Met-Met-Gln-Asn-linker-Ser-Asp-Lys-Pro] | 70 | could inhibit the proliferation | 0.453 ± 0.021 | 0.502 ± 0.013 | 0.652 ± 0.018 | could inhibit the proliferation | 0.340 ± 0.012 | 0.412 ± 0.005 | 0.622 ± 0.007 | highly significantly different from the model group (***P<0.001) | – | highly significantly different from the model group (**P<0.01) |
| TSLDASIIWAMMQNGGGGLSKLGGGGSDKP [Polypeptide IV, Thr-Ser-Leu-Asp-Ala-Ser-Ile-Ile-Trp-Ala-Met-Met-Gln-Asn-linker-Leu-Ser-Lys-Leu-linker-Ser-Asp-Lys-Pro] | 80 | could inhibit the proliferation | 0.478 ± 0.018 | 0.472 ± 0.03 | 0.580 ± 0.012 | could inhibit the proliferation | 0.362 ± 0.015 | 0.392 ± 0.008 | 0.583 ± 0.012 | highly significantly different from the model group (***P<0.001) | – | highly significantly different from the model group (***P<0.001) |
| TSLDASIIWAMMQNGGGGSDKPGGGGLSKL [Polypeptide III, Thr-Ser-Leu-Asp-Ala-Ser-Ile-Ile-Trp-Ala-Met-Met-Gln-Asn-linker-Ser-Asp-Lys-Pro-linker-Leu-Ser-Lys-Leu] | 80 | could inhibit the proliferation | 0.455 ± 0.002 | 0.435 ± 0.013 | 0.642 ± 0.018 | could inhibit the proliferation | 0.349 ± 0.012 | 0.413 ± 0.003 | 0.612 ± 0.018 | highly significantly different from the model group (*P<0.05) | – | highly significantly different from the model group (**P<0.01) |

From patent US20220332763A1, “FUSED POLYPEPTIDE AND USE THEREOF” (NANJING ANJI BIOLOGICAL TECHNOLOGY CO., LTD., priority 2019, published 2022)
